Reference: US10351548B2, “2-oxo-1,2-dihydropyridine-3-carboxamide compounds and their use as inhibitors of PDK1” (INTERNATIONAL SOCIETY FOR DRUG DEVELOPMENT S.R.L., priority 2015, dated 2019)
Like-named read-outs stand apart in the source and are kept apart here.

Columns and labels:
[1] = tested on: AKT phosphorylation at Thr308 in GSCs; test: PDK1 activity in GSCs, (T308)AKT phosphorylation ELISA; format: cell-based, human; conditions: for time of peak of inhibition of AKT phosphorylation at Thr308 / inhibition of AKT phosphorylation at Thr308: 10 μM; for inhibition of AKT phosphorylation at Thr308: 0-120 min; for inhibition at 10 µM: Homo sapiens, read-out: peak of inhibition (percentage of PDK1 inhibition)
Experimental: U87MG cells were cultured in 96-well microplates (5.000 cells/well), and treated for different times with 10 μM SA16, SA23 or IB35. At the end of the treatment period, the GSCs were centrifuged at 500×g for 3 minutes; cells were washed twice using fresh saline, and rapidly fixed with 4% (for adherent U87MG cells) or 8% (for suspension GSCs) formaldehyde to preserve activation of specific protein modification. The activity of PDK1 was assessed measuring the levels of phosphorylated AKT on Thr308, using a specific primary antibodies. The subsequent incubation with a secondary HRP-conjugated antibody and the developing solution allowed the colorimetric quantification of the levels of phosphorylated protein. The relative number of cells in each well was then determined using the Crystal-Violet assay. The results were calculated by subtracting the mean background value from the values obtained under each test condition: values were normalised to the number of cells in each well and were expressed as the percentages of the control (untreated cells) values.
The effects of the new compounds on PDK1 activity were investigated by ELISA assays also in GSCs. U87MG-derived CSCs were treated for the indicated times (0-120 min) with NSC medium containing DMSO (control), or 10 μM IIB35, SA23 or SA16. At the end of the treatment periods, the levels of AKT phosphorylation on Thr308 were evaluated using an ELISA assay, as above described. The data were expressed as the percentage of phosphorylated AKT relative to those of untreated cells (control), which were set at 100%, and were the mean values±SEM of three independent experiments performed in triplicate. The data are represented in FIG. 12. The significance of differences was performed using one-way ANOVA with Bonferroni post-test (* p<0.05, ** p<0.01, *** p<0.001 vs. control).

CSNK1G1 (CK1 gamma 1) = CSNK1G1 (CK1 gamma 1) (Homo sapiens (Human), UniProt Q9HCP0); test: IB35 kinases profiling at 100 nM (ZLYTE); format: biochemical; conditions: IB35 100 nM, ATP Km app
From the text: (§1) The results are reported below

MAP2K2 (MEK2) = MAP2K2 (MEK2) (Homo sapiens (Human), UniProt P36507); test: IB35 kinases profiling at 100 nM (ZLYTE); format: biochemical; conditions: IB35 100 nM, ATP 100
From the text: as §1

RPS6KB1 (p70S6K) = RPS6KB1 (p70S6K) (Homo sapiens (Human), UniProt P23443); test: IB35 kinases profiling at 100 nM (ZLYTE); format: biochemical; conditions: IB35 100 nM, ATP Km app
From the text: as §1

PRKCE (PKC epsilon) = PRKCE (PKC epsilon) (Homo sapiens (Human), UniProt Q02156); test: IB35 kinases profiling at 100 nM (ZLYTE); format: biochemical; conditions: IB35 100 nM, ATP Km app
From the text: as §1

AMPK A2/B1/G1 = AMPK A2/B1/G1 (Homo sapiens (Human), UniProt P54646); test: IB35 kinases profiling at 100 nM (ZLYTE); format: biochemical; conditions: IB35 100 nM, ATP Km app
From the text: as §1

GRK5 = GRK5 (Homo sapiens (Human), UniProt P34947); test: IB35 kinases profiling at 100 nM (ZLYTE); format: biochemical; conditions: IB35 100 nM, ATP Km app
From the text: as §1

PRKCA (PKC alpha) = PRKCA (PKC alpha) (Homo sapiens (Human), UniProt P17252); test: IB35 kinases profiling at 100 nM (ZLYTE); format: biochemical; conditions: IB35 100 nM, ATP Km app
From the text: as §1

PRKCD (PKC delta) = PRKCD (PKC delta) (Homo sapiens (Human), UniProt Q05655); test: IB35 kinases profiling at 100 nM (ZLYTE); format: biochemical; conditions: IB35 100 nM, ATP Km app
From the text: as §1

BRAF = BRAF (Homo sapiens (Human), UniProt P15056); test: IB35 kinases profiling at 100 nM (ZLYTE); format: biochemical; conditions: IB35 100 nM, ATP 100
From the text: as §1

U87MG cells = test: U87MG cell proliferation, MTS assay; format: cell-based, human; conditions: for IC50: Homo sapiens, U-87 MG, 72 h, MTS assay
Experimental: The U87MG cell line was obtained from the National Institute for Cancer Research of Genoa (Italy) and cultured in DMEM 10% FBS and 2 mM glutamine. To isolate GSCs, approximately 2.0×10^6 cells were suspended in 1 mL of a defined serum-free Neural Stem Cell (NSC) medium (Daniele, S., et al., Modulation of A1 and A2B adenosine receptor activity: a new strategy to sensitise glioblastoma stem cells to chemotherapy. Cell death & disease, 2014. 5(11): p. e1539). After 3-4 days of culture, the neurospheres were collected, suspended in NSC medium, dissociated into single cells, and plated for the assays. For the long-term treatment of cells, NSC or complete medium containing drugs was replaced every two to three days.
The human U87MG cells or GSCs were seeded at a density of 3×10^3 cells/well. After 24 h, the cells were treated from one to seven days with fresh growth medium containing different concentrations of SA16, SA23 or IB35. Following the treatment period, cell proliferation was determined using the MTS assay according to manufacturer's instruction. The absorbance of formazan at […] was measured in a colorimetric assay with an automated plate reader (Victor Wallac 2, Perkin Elmer). The results were calculated by subtracting the mean background from the values obtained from each evaluation and were expressed as the percentage of the control (untreated cells). Sigmoid dose-response curve was generated, from which the IC50 values were derived.
As representative GBM cell line, the above U87MG cells were used; this human cell line resulted an appropriate model to study the effects of PDK1 inhibition, because it is deficient for the tumour suppressor phosphatase and tensin homologue (PTEN), a negative regulator of the PI3K/AKT pathway (Wang, S. I., et al., Somatic mutations of PTEN in glioblastoma multiforme. Cancer research, 1997. 57(19): p. 4183-4186). To examine the effects of SA16, SA23 and IB35 on GBM cell growth/survival, U87MG cells were incubated with different concentrations of the new compounds (1 nM-10 μM) for 24 and 72 h. Specifically, U87MG cells were treated in complete medium with different concentrations of SA16, SA23 or IB35 (1 nM-10 μM) for 24 h (A) or 72 h (B). At the end of treatment, cell proliferation was measured using the MTS assay. The data are expressed as a percentage with respect to that of untreated cells (control), which was set to 100%, and are the mean values±SEM of three independent experiments, each performed in duplicate. The significance of the differences reported in FIGS. 1 and 2 was determined with a one-way ANOVA with Bonferroni post-test (* p<0.05, **p<0.01, *** p<0.001 vs. control cells).

Sequence of PRKCD (PKC delta) (Q05655 whole entry, species assumed): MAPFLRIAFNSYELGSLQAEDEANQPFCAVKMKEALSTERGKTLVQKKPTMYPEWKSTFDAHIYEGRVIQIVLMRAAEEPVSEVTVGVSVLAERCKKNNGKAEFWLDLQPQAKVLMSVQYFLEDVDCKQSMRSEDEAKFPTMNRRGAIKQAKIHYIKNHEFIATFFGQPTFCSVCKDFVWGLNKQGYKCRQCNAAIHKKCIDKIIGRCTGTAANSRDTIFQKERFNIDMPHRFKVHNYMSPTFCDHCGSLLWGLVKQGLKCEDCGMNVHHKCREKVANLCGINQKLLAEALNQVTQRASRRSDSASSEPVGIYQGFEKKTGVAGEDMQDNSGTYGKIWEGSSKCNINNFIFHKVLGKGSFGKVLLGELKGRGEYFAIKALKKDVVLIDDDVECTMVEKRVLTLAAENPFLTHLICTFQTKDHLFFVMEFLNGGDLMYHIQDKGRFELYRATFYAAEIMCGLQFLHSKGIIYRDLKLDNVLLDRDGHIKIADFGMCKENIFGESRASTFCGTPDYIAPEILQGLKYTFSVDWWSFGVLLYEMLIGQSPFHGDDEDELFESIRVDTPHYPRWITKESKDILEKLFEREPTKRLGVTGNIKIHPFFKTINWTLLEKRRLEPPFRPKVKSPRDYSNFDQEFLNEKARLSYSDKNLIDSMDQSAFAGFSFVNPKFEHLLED
Sequence of MAP2K2 (MEK2) (P36507 whole entry, species assumed): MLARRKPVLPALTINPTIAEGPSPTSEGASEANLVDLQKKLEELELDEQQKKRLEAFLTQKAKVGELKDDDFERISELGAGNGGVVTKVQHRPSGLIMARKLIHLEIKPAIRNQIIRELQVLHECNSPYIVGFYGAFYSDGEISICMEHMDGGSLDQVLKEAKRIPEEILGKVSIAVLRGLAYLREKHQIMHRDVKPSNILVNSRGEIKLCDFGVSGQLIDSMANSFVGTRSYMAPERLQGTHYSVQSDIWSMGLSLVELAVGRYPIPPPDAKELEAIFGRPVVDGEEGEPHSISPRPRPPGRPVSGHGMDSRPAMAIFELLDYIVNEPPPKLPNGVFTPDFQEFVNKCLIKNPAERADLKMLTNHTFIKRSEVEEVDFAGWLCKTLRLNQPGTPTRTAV
Sequence of PRKCE (PKC epsilon) (Q02156 whole entry, species assumed): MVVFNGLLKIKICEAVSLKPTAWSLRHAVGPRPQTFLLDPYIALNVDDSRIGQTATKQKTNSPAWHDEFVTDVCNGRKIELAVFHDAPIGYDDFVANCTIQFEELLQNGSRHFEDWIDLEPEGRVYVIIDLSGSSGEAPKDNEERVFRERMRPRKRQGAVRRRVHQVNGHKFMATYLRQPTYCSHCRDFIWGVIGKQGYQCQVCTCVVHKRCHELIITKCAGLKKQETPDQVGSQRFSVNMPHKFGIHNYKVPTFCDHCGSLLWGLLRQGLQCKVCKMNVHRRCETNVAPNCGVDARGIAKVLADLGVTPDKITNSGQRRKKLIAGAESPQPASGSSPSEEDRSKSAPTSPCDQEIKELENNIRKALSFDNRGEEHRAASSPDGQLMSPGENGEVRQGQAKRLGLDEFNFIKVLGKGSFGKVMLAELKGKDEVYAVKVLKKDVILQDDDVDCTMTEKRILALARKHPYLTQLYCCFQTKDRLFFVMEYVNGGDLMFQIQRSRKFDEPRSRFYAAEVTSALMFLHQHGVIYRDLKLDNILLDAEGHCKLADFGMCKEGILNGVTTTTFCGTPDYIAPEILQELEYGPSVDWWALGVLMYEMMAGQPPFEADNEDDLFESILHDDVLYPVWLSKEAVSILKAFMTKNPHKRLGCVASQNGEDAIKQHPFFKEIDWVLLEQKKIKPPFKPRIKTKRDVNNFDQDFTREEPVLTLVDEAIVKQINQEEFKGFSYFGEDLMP
Sequence of RPS6KB1 (p70S6K) (P23443 whole entry, species assumed): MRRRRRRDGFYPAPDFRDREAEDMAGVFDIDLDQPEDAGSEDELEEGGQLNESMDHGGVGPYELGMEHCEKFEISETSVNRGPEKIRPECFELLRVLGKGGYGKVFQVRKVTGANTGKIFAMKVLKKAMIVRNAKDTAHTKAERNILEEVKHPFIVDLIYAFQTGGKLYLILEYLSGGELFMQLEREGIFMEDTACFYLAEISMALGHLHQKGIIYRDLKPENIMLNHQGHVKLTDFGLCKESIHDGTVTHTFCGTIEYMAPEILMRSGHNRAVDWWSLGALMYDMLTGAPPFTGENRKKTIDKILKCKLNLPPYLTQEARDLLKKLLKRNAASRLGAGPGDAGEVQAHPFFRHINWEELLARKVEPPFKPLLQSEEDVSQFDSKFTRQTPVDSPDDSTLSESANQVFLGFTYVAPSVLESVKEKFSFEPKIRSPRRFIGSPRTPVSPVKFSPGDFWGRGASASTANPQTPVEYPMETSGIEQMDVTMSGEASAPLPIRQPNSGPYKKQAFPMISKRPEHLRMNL
Sequence of GRK5 (P34947 whole entry, species assumed): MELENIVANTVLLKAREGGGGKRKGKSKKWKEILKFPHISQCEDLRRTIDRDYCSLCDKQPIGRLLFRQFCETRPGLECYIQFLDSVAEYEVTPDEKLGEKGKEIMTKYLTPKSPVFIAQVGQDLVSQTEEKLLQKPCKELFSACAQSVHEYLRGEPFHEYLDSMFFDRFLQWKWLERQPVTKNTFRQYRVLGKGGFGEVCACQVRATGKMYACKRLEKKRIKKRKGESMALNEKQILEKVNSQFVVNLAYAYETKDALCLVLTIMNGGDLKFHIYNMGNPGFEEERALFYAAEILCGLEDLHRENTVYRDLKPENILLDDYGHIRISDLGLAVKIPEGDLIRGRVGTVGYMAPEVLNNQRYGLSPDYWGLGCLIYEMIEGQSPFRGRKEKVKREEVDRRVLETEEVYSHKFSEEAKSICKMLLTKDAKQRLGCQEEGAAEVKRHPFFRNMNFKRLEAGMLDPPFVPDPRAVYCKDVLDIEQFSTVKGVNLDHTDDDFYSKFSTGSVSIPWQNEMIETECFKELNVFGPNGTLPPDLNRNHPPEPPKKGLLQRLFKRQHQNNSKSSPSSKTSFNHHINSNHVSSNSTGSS
Sequence of CSNK1G1 (CK1 gamma 1) (Q9HCP0 whole entry, species assumed): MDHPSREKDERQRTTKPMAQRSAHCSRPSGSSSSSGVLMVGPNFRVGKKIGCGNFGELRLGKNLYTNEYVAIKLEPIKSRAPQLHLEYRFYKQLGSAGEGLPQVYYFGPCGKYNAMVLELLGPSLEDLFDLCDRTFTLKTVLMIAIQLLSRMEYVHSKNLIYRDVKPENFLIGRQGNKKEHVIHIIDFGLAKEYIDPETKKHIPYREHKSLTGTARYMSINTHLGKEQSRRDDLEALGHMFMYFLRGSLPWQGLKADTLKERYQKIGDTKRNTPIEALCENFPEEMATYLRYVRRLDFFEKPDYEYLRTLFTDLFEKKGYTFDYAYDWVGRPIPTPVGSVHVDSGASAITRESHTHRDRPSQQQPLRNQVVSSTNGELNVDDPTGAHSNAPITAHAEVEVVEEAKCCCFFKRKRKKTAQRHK
Sequence of BRAF (P15056 whole entry): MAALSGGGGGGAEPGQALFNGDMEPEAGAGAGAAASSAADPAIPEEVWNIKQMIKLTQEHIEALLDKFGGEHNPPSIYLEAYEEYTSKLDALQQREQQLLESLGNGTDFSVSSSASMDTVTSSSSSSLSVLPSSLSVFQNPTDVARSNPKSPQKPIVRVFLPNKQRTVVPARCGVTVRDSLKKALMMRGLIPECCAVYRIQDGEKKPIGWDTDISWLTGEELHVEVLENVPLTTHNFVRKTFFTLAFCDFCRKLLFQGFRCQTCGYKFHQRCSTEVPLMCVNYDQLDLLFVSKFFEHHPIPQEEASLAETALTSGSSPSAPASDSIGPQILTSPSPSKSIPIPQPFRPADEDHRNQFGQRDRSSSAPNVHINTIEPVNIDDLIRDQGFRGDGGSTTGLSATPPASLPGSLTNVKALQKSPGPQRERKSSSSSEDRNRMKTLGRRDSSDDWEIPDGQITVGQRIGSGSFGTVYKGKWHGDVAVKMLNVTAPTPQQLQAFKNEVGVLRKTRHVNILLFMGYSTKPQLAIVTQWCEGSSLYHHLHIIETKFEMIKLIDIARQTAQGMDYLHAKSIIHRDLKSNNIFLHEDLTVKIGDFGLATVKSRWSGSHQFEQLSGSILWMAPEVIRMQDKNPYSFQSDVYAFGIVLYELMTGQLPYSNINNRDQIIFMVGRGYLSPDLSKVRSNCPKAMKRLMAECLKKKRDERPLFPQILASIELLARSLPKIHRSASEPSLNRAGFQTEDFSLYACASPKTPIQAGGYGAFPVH

For O=C(CNC(=O)c1cccn(Cc2ccc(F)c(F)c2)c1=O)Nc1ccc2c(c1)/C(=C/c1cnc[nH]1)C(=O)N2 [IB35, (Z)—N-(2-((3-((1H-imidazol-5-yl)methylene)-2-oxoindolin-5-yl)amino)-2-oxoethyl)-1-(3,4-difluorobenzyl)-2-oxo-1,2-dihydro pyridine-3-carboxamide], the “time of peak of inhibition of AKT phosphorylation at Thr308” value [1] was 120 min, the “inhibition of AKT phosphorylation at Thr308” value [1] was “significantly inhibited” and the inhibition at 10 µM [1] was 80.4 ± 3.7%. For the same molecule, the inhibition at 0.1 µM (CSNK1G1 (CK1 gamma 1); read-out: % Inhibition 1) was 3%, the inhibition at 0.1 µM (CSNK1G1 (CK1 gamma 1); read-out: % Inhibition 2) was 2% and the inhibition at 0.1 µM (CSNK1G1 (CK1 gamma 1); read-out: % Inhibition Avg) was 3%. For the same molecule, the inhibition at 0.1 µM (MAP2K2 (MEK2); read-out: % Inhibition 1) was 13%, the inhibition at 0.1 µM (MAP2K2 (MEK2); read-out: % Inhibition 2) was 6% and the inhibition at 0.1 µM (MAP2K2 (MEK2); read-out: % Inhibition Avg) was 9%. For the same molecule, the inhibition at 0.1 µM (RPS6KB1 (p70S6K); read-out: % Inhibition 1) was -3%, the inhibition at 0.1 µM (RPS6KB1 (p70S6K); read-out: % Inhibition 2) was -10% and the inhibition at 0.1 µM (RPS6KB1 (p70S6K); read-out: % Inhibition Avg) was -6%. The inhibition at 0.1 µM (PRKCE (PKC epsilon); read-out: % Inhibition 1) was 4%, the inhibition at 0.1 µM (PRKCE (PKC epsilon); read-out: % Inhibition 2) was 3% and the inhibition at 0.1 µM (PRKCE (PKC epsilon); read-out: % Inhibition Avg) was 3%. For the same molecule, the inhibition at 0.1 µM (AMPK A2/B1/G1; read-out: % Inhibition 1) was 10%, the inhibition at 0.1 µM (AMPK A2/B1/G1; read-out: % Inhibition 2) was 11% and the inhibition at 0.1 µM (AMPK A2/B1/G1; read-out: % Inhibition Avg) was 10%. The inhibition at 0.1 µM (GRK5; read-out: % Inhibition 1) was -7%, the inhibition at 0.1 µM (GRK5; read-out: % Inhibition 2) was 0% and the inhibition at 0.1 µM (GRK5; read-out: % Inhibition Avg) was -4%. The inhibition at 0.1 µM (PRKCA (PKC alpha); read-out: % Inhibition 1) was -2%, the inhibition at 0.1 µM (PRKCA (PKC alpha); read-out: % Inhibition 2) was 2% and the inhibition at 0.1 µM (PRKCA (PKC alpha); read-out: % Inhibition Avg) was 0%. The inhibition at 0.1 µM (PRKCD (PKC delta); read-out: % Inhibition 1) was -2%, the inhibition at 0.1 µM (PRKCD (PKC delta); read-out: % Inhibition 2) was -12% and the inhibition at 0.1 µM (PRKCD (PKC delta); read-out: % Inhibition Avg) was -7%. It also gave an inhibition at 0.1 µM (BRAF; read-out: % Inhibition 1) of 16%, an inhibition at 0.1 µM (BRAF; read-out: % Inhibition 2) of 17% and an inhibition at 0.1 µM (BRAF; read-out: % Inhibition Avg) of 17%. For the same molecule, the “inhibition of U87MG cell proliferation” value (U87MG cells; 24 h, higher effect observed (1 nM-10 μM tested)) was 41% and the IC50 (U87MG cells; read-out: IC50 U87MG) was 450 ± 46.2 nM.
In the case of O=C1Nc2ccc(NC(=O)[C@H](NC(=O)c3cccn(Cc4ccc(F)c(F)c4)c3=O)c3ccccc3)cc2/C1=C/c1ncc[nH]1 [SA23, (Z)—(R)—N-(2-((3-((1H-imidazol-2-yl)methylene)-2-oxoindolin-5-yl)amino)-2-oxo-1-phenylethyl)-1-(3,4-difluorobenzyl)-2-oxo-1,2-dihydropyridine-3-carboxamide], the “time of peak of inhibition of AKT phosphorylation at Thr308” value [1] is reported as 120 min, the “inhibition of AKT phosphorylation at Thr308” value [1] is reported as “significantly inhibited” and the inhibition at 10 µM [1] is reported as 69 ± 4.5%. For the same molecule, the IC50 (U87MG cells; read-out: IC50 U87MG) was 1170 ± 100 nM and the IC50 (U87MG cells; read-out: IC50 U87MG cell proliferation) was 1170 ± 100 nM.
